Data on 15 molecules can be found in patent publication US20080076718A1, “Novel Proteasome Modulators” (priority 2003, published 2008).

What all share (format): biochemical, yeast (Saccharomyces cerevisae)
Assay [1] addresses T1, latent 20S proteasome (CT-L activity) (Saccharomyces cerevisiae, UniProt P23724+P30656).
T1 construct: The yeast (Saccharomyces cerevisae) 26S and 20S proteasomes were purified according to the protocol described in; made in house; host or cells: Saccharomyces cerevisiae (native complex purified from yeast by the cited Leggett et al. 2002 protocol)
In words: Activating effect on the CT-L activity of the latent 20S proteasome (activation factor fa). Further details: key: fa = initial rate with compound / initial rate of control (Va/V0). Particulars: fa = Va/V0, concentration not given. On the procedure: (§1) The yeast (Saccharomyces cerevisae) 26S and 20S proteasomes were purified according to the protocol described in: LEGGETT et al. (2002) Molecular Cell, 10, pp 495-507.
(§2) The peptidase activities were determined using the fluorogenic substrates Suc-LLVY-amc (CT-L), Z-LLE-βNA (PA) and Boc-LRR-amc (T-L), provided by the company Bachem (Voisins-le-Bretonneux, France).
(§3) The peptidase activities of the yeast and Xenopus 26S proteasomes and those of the yeast 20S proteasome, latent and activated, were determined under the conditions described in Table II.
(§4) The compounds studied are solubilized in the buffer or in DMSO. The enzyme is preincubated (15 minutes at 30° C.) in the corresponding buffer (Table II), in the presence of the molecule to be tested. When the molecule is solubilized in DMSO, the control (no addition molecule to be tested) contains an amount of DMSO identical to that of the assays(3.5% v/v). The reaction is triggered by adding the substrate. It is continuously monitored for 30 minutes at 30° C. The results presented were obtained by calculating the mean of at least two independent assays. An activation is characterized by an activity, after treatment with the molecule tested, of greater than 100%. The variability is less than 10%. The results are expressed by means of an activation factor fa equal to the ratio of the initial rate Va in the presence of the compound tested to the initial rate of the control V0.

Assay [2] concerns the target T2, latent 20S proteasome (T-L activity) (Saccharomyces cerevisiae, UniProt P25043+P25451).
T2 construct: The yeast (Saccharomyces cerevisae) 26S and 20S proteasomes were purified according to the protocol described in; made in house; host or cells: Saccharomyces cerevisiae (native complex purified from yeast by the cited Leggett et al. 2002 protocol)
Kind of assay: Activating effect on the T-L activity of the latent 20S proteasome (activation factor fa). Particulars: fa = Va/V0, concentration not given. As to the method:
as §1, §2, §3, §4

The target of assay [3] is T3, yeast activated 20S proteasome (CT-L activity) (Saccharomyces cerevisiae, UniProt P23724+P30656).
T3 construct: The yeast (Saccharomyces cerevisae) 26S and 20S proteasomes were purified according to the protocol described in; made in house; host or cells: Saccharomyces cerevisiae (native complex purified from yeast by the cited Leggett et al. 2002 protocol)
In words: Inhibition of the CT-L (chymotrypsin-like) peptidase activity of the activated 20S proteasome, substrate Suc-LLVY-amc. Particulars: for Increase of the inhibitory capacity compared with the unmodified peptide (factor): lipopeptide versus corresponding peptide, CT-L activity of activated 20S proteasome; for Inhibitory effect of the lipopeptides on the CT-L activity: yeast activated 20S proteasome, after treatment with 35 μM of lipopeptide (17.5 μM for C18/TVTYKF). As to the method:
as §1, §2, §3
(§5) The compounds studied are solubilized in the buffer (peptides, pseudopeptides) or in DMSO (lipopeptides, photoactivatable peptides). The enzyme is preincubated (15 min at 30° C.) in the corresponding buffer (Table II), in the presence of the inhibitor. For the cases where the inhibitor is solubilized in DMSO (lipopeptides, photoactivatable peptides), the control without inhibitor contains an amount of DMSO identical to that of the assays with inhibitor (3.5% v/v). The reaction is triggered by adding the substrate. It is continuously monitored for 30 min at 30° C. The initial rates of the assays with inhibitors (calculated from the experimental points) are compared with those of the controls. The results presented were obtained by calculating the mean of at least two independent assays. The variability is less than 10%.
(§6) The IC50 parameter corresponds to the concentration of inhibitor that results in a 50% loss of enzymatic activity.
(§7) The enzyme is preincubated in the presence of increasing concentrations of inhibitor. The reaction is triggered by adding the substrate (see paragraph “Detection and study of the inhibitory effects”). The percentage inhibition is calculated from equation 1.
(§8) The experimental points describe the evolution of the inhibitory effect of the compound studied as a function of its concentration. As a general rule, they fit with the curve described by equation 2 in which [I] is the concentration of inhibitor
The mechanism of inhibition is determined by tracing the curve of the evolution of the V0/Vi ratio as a function of the concentration of inhibitor.

Assay [4] has as its target T4, activated 20S proteasome (PA activity) (Saccharomyces cerevisiae, UniProt P25043+P38624).
T4 construct: The yeast (Saccharomyces cerevisae) 26S and 20S proteasomes were purified according to the protocol described in; made in house; host or cells: Saccharomyces cerevisiae (native complex purified from yeast by the cited Leggett et al. 2002 protocol)
In words: Inhibition of the post-acid (PA) peptidase activity of the activated 20S proteasome, substrate Z-LLE-βNA. On the procedure: as §1, §2, §3, §5, §6, §7, §8

Setting [5] is: activated 20S proteasome, read-out: CT-L activity: IC50.

Read-outs that look alike come from different tables or passages of the source. Square brackets hold non-standard residues; d marks the D form. Ends that are not written are not given here. Peptide text beside a SMILES is read from it. * marks the point of attachment. Biotin = O=C1N[C@H]2[C@H](CS[C@H]2CCCCC(=O)*)N1; Bpa = N[C@@H](Cc1ccc(C(=O)c2ccccc2)cc1)C(=O)O; Decanoyl = CCCCCCCCCC(=O)*; Octanoyl = CCCCCCCC(=O)*; Ava = NCCCCC(=O)O

Consider TITFDY [reference compound], for which the “fa CT-L activity” value in assay [1] was determined as 5. Further, the “fa T-L activity” value in assay [2] was determined as 3.

As for CH3—(CH2)14—CO-TVTYKF, in assay [1], the “fa CT-L activity” value was determined as 2.

`CCCCCCCC(=O)N[C@H](C(=O)N[C@H](C(=O)N[C@H](C(=O)N[C@@H](Cc1ccc(O)cc1)C(=O)N[C@@H](CCCCN)C(=O)N[C@@H](Cc1ccccc1)C(=O)O)[C@@H](C)O)C(C)C)[C@@H](C)O` [C8/TVTYKF, CH3—(CH2)6—CO-TVTYKF] (Octanoyl-TVTYKF-OH; C-terminus assumed): the IC50 (usually the concentration at which inhibition is half-maximal) in assay [3] (setting [5]) is roughly 35 µM. In assay [3], the “Increase of the inhibitory capacity compared with the unmodified peptide (factor)” value came to 17 and the “Inhibitory effect of the lipopeptides on the CT-L activity” value (from here on “Inhibitory effect of the lipopeptides”) was found to be 50%.

For TITYEY [reference compound], in assay [1], the “fa CT-L activity” value was 2.

Consider `CC(C)[C@H](NC(=O)[C@@H](NC(=O)CCCCNC(=O)CCCC[C@@H]1SC[C@@H]2NC(=O)N[C@@H]21)[C@@H](C)O)C(=O)N[C@H](C(=O)N[C@@H](Cc1ccc(C(=O)c2ccccc2)cc1)C(=O)N[C@@H](CCCCN)C(=O)N[C@@H](Cc1ccccc1)C(=O)O)[C@@H](C)O` [Pseudopeptide 3, Biot-Ava-TVT-Bpa-KF] ({Biotin-Ava}-TVT[Bpa]KF-OH; C-terminus assumed), for which the IC50 in assay [3] (enzyme form and activity not stated at the place, read-out: IC50) came out at 32 µM.

For TITYKF [TITYKF, reference compound], the “Mechanism of inhibition (kinetic analysis, V0/Vi versus inhibitor concentration)” value in assay [3] (activated 20S proteasome) was “parabolic kinetics”. In addition, the IC50 in assay [3] (setting [5]) amounted to 260 µM; in assay [4] it was 336 µM.

Take CH3—(CH2)14—CO-TITFDY [C16/TITFDY]: the “Inhibitory effect of the lipopeptides” value in assay [3] is listed as 20%. Besides, the “fa CT-L activity” value in assay [1] was 3.

In the case of CH3—(CH2)16—CO-TVTYKF, the “fa CT-L activity” value in assay [1] is reported as 3.2.

`CC(C)C[C@@H](CNCC(=O)N1CCC[C@H]1C(=O)N[C@@H](CO)C(=O)O)NC(=O)[C@H](CC(N)=O)NC(=O)[C@@H](N)[C@@H](C)O` [Pseudopeptide 1, TNL-ψ[CH2—NH]-GPS]: the “Mechanism of inhibition (kinetic analysis, V0/Vi versus inhibitor concentration)” value in assay [3] (activated 20S proteasome) is “reacts with the catalytic sites and the regulatory site(s)”. Also, in assay [3] (estimated values, activity type not named at the place, peptide tested under conditions where its hydrolysis is negligible, read-out: IC50 (activated 20S proteasome inhibitor)), the IC50 was 380 µM. In addition, the inhibition (in general, the drop in the measured response relative to a control, in per cent) at 500 µM in assay [4] (inhibitor 500 μM) came to 63%.

With TVTFKF [TVTFKF, reference compound], the “Mechanism of inhibition (kinetic analysis, V0/Vi versus inhibitor concentration)” value in assay [3] (activated 20S proteasome) is given as “parabolic kinetics”. For the same molecule, the IC50 in assay [3] (setting [5]) came out at 229 µM; in assay [4] it was 210 µM. Moreover, the “fa CT-L activity” value in assay [1] is listed as 2.3. In addition, the “fa T-L activity” value in assay [2] is 1.7.

Take CH3—(CH2)12—CO-TVTYKF [C14/TVTYKF]: the “Inhibitory effect of the lipopeptides” value in assay [3] is recorded as 0%. Moreover, in assay [1], the “fa CT-L activity” value amounted to 2.

For the molecule TITYDF, the “fa T-L activity” value in assay [2] turned out to be 2.5.

With Ac-TNL-ψ[CH2—NH]-GPS [Pseudopeptide 2], the “Effectiveness relative to pseudopeptide 1” value in assay [3] (activated 20S proteasome) is “half as effective as 1”. The “Inhibition of the post-acid activity PA” value in assay [4] (inhibitor 1 mM) is 28%.

On to `CCCCCCCCCC(=O)N[C@H](C(=O)N[C@H](C(=O)N[C@H](C(=O)N[C@@H](Cc1ccccc1)C(=O)N[C@@H](CCCCN)C(=O)N[C@@H](Cc1ccccc1)C(=O)O)[C@@H](C)O)C(C)C)[C@@H](C)O` [C10/TVTFKF, CH3—(CH2)8—CO-TVTFKF] (Decanoyl-TVTFKF-OH; C-terminus assumed), for which, in assay [3] (setting [5]), the IC50 is roughly 35 µM. Also, in assay [3], the “Increase of the inhibitory capacity compared with the unmodified peptide (factor)” value is recorded as 6.5 and the “Inhibitory effect of the lipopeptides” value was 42%.

With CH3—(CH2)16—CO-TITFDY [C18/TITFDY], the “Inhibitory effect of the lipopeptides” value in assay [3] was 34%. Also, in assay [1], the “fa CT-L activity” value is on record as 6. The “fa T-L activity” value in assay [2] amounted to 1.2.
